Data on four molecules can be found in US11464759B2, “5-HT6 receptor antagonists for use in the treatment of alzheimer's disease in patient subpopulation carrying APOE4 alleles” (H. Lundbeck A/S, priority 2017, dated 2022).

Experiment [1] deals with APOE4/4 homozygote patients and APOE4 heterozygote patients with mild-moderate Alzheimer's disease. Put plainly: Expected treatment response to other 5-HT6 receptor antagonists in APOE4 patients. The class given is in vivo, human. Particulars: APOE4/4 homozygote and APOE4 heterozygote patients with mild-moderate AD; surmised from idalopirdine.
The test system of experiment [2] is AD. Particulars: cited from earlier work.
For experiment [3], the system named is patients with mild-moderate AD. The experiment is described as follows: Phase III study 14861A, NPI by ApoE4 allele number. The note with it: 60 mg QD versus placebo, adjunct to donepezil.
Text: (§1) Neuropsychiatric Inventory (NPI) was included as an endpoint supportive of the secondary objective.
The test system of experiment [4] is patients with mild-moderate AD. The experiment is described as follows: Phase III studies 14861A and 14863A pooled, ADCS-ADL by ApoE4 allele number. Particulars: 60 mg versus placebo, adjunct to AChEI.
Experimental: (§2) ADCS-ADL is measured according to Galasko et al. An inventory to assess activities of daily living for clinical trials in Alzheimer's disease.
(§3) The key secondary endpoints included a change from baseline to Week 24 in Alzheimer's disease Cooperative Study-Activities of Daily Living Inventory (ADCS-ADL) total score.
In experiment [5] the test system is patients with mild-moderate AD. Put plainly: Phase III study 14861A, ADAS-cog by ApoE4 allele number. Particulars: 60 mg QD versus placebo, adjunct to donepezil.
Text: (§4) The primary endpoint was change from baseline to Week 24 in Alzheimer's disease Assessment Scale-cognitive subscale (ADAS-cog). This end-point addresses the primary objective of the study, which was to establish efficacy of idalopirdine as adjunctive therapy to donepezil for symptomatic treatment of patients with mild-moderate AD.
The test system of experiment [6] is patients with mild-moderate AD. Put plainly: Phase III studies 14861A and 14863A pooled, NPI by ApoE4 allele number. Particulars: 60 mg versus placebo, adjunct to AChEI.
Text: as §1
The test system of experiment [7] is patients with mild-moderate AD. Put plainly: Phase III study 14863A, ADAS-cog by ApoE4 allele number. Particulars: 60 mg QD versus placebo, adjunct to donepezil, rivastigmine, galantamine.
Text: as §4
Experiment [8] relates to patients with mild-moderate AD. The experiment is described as follows: Phase III study 14863A, MMSE by ApoE4 allele number. The note with it: 60 mg QD versus placebo, adjunct to donepezil, rivastigmine, galantamine.
Experimental: (§5) Mini Mental State Examination (MMSE) is measured according to Folstein, M. F., Folstein, S. E. & McHugh, P. R. “Mini-mental state”: a practical method for grading the cognitive state of patients for the clinician.
(§6) Mine Mental State Examination (MMSE) was included as a secondary endpoint supportive of the primary objective.
(§7) In the tables below a negative effect value for ADAS-cog and NPI reflects a positive treatment effect, while for ADL and MMSE a positive effect value reflects a positive treatment effect:
Experiment [9] deals with patients with moderate AD (MMSE 12-19). The note with it: LADDER study, 90 mg/day (30 mg TID) added to stable donepezil; cited from earlier work.
The target of experiment [10] is h5-HT2B (Homo sapiens, UniProt P41595). Particulars: cited from earlier work.
Experiment [11] deals with h5-HT1B (Homo sapiens, UniProt P28222). Particulars: cited from earlier work.
The subject of experiment [12] is patients with mild-moderate Alzheimer's disease (MMSE 12-22). The experiment is described as follows: Phase III program, idalopirdine as adjunctive treatment to acetylcholinesterase inhibitor, cognitive performance. It counts as in vivo, human.
For experiment [13], the system named is patients with mild-moderate AD. Put plainly: Phase III studies 14861A and 14863A pooled, ADAS-cog by ApoE4 allele number. The note with it: 60 mg versus placebo, adjunct to AChEI.
Text: as §4
The subject of experiment [14] is patients with mild-moderate AD. Put plainly: Phase III studies 14861A and 14863A pooled, MMSE by ApoE4 allele number. Particulars: 60 mg versus placebo, adjunct to AChEI.
Experimental: as §5, §6, §7
Experiment [15] concerns patients with mild-moderate AD. The experiment is described as follows: Phase III study 14863A, ADCS-ADL by ApoE4 allele number. Particulars: 60 mg QD versus placebo, adjunct to donepezil, rivastigmine, galantamine.
Experimental: as §2, §3
Experiment [16] deals with patients with mild-moderate AD. Put plainly: Phase III study 14861A, MMSE by ApoE4 allele number. The note with it: 60 mg QD versus placebo, adjunct to donepezil.
Experimental: as §5, §6, §7
Experiment [17] concerns patients with mild-moderate AD. Put plainly: Phase III study 14863A, NPI by ApoE4 allele number. The note with it: 60 mg QD versus placebo, adjunct to donepezil, rivastigmine, galantamine.
Text: as §1
Experiment [18] deals with h5-HT1E (Homo sapiens, UniProt P28566). Particulars: cited from earlier work.
Experiment [19] relates to patients with mild-moderate AD. Put plainly: Phase III study 14861A, ADCS-ADL by ApoE4 allele number. Particulars: 60 mg QD versus placebo, adjunct to donepezil.
Experimental: as §2, §3
The target of experiment [20] is h5-HT7 (Homo sapiens, UniProt P34969). The note with it: cited from earlier work.
Setting [21] is: 0 ApoE4 alleles, negative = positive treatment effect.
Where [22] appears, read: 1 ApoE4 allele, negative = positive treatment effect.
The mark [23] stands for this setting: 2 ApoE4 alleles, negative = positive treatment effect.
[24] abbreviates: interaction 2 vs 0 ApoE4 alleles.
Where [25] appears, read: interaction (1 or 2) vs 0 ApoE4 alleles.
Setting [26] is: 0 ApoE4 alleles, positive = positive treatment effect.
The mark [27] stands for this setting: 1 ApoE4 allele, positive = positive treatment effect.
[28] abbreviates: 2 ApoE4 alleles, positive = positive treatment effect.

pKi: −log10 of the molar value. “Also recorded” adds a separate entry of the source.

Chain of h5-HT7 (P34969 whole entry): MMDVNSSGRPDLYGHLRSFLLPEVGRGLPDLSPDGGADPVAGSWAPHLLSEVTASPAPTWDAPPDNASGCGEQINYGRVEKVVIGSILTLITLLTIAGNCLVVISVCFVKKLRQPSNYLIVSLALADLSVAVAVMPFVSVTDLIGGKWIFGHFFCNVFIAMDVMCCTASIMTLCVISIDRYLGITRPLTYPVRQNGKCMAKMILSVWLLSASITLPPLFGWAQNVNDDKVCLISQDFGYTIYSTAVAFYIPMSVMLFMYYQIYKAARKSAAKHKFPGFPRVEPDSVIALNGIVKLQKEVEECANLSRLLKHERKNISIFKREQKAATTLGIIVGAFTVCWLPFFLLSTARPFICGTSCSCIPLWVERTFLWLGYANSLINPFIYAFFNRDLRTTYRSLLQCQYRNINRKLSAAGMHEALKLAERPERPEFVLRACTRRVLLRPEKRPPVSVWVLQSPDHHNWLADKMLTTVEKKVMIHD
Chain of h5-HT1B (P28222 whole entry): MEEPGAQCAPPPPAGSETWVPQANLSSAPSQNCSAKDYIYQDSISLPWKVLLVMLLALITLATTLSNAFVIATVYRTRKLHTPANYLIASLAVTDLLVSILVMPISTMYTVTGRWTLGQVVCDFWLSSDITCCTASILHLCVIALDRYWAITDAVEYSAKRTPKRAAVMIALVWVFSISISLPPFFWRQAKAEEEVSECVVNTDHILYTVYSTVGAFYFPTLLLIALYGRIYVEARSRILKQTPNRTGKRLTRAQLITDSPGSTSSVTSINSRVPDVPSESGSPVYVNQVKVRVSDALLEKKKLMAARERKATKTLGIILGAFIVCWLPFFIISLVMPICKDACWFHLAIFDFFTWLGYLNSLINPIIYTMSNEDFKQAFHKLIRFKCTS
Chain of h5-HT1E (P28566 whole entry): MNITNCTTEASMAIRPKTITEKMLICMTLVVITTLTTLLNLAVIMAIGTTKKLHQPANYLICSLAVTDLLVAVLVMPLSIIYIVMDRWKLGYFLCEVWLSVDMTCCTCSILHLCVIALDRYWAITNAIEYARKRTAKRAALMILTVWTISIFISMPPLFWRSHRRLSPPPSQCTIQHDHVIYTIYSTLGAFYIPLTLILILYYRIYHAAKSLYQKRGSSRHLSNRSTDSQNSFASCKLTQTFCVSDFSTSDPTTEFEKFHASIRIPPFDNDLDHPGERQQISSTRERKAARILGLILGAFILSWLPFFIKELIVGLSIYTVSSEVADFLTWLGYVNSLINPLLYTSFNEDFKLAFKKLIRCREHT
Chain of h5-HT2B (P41595 whole entry): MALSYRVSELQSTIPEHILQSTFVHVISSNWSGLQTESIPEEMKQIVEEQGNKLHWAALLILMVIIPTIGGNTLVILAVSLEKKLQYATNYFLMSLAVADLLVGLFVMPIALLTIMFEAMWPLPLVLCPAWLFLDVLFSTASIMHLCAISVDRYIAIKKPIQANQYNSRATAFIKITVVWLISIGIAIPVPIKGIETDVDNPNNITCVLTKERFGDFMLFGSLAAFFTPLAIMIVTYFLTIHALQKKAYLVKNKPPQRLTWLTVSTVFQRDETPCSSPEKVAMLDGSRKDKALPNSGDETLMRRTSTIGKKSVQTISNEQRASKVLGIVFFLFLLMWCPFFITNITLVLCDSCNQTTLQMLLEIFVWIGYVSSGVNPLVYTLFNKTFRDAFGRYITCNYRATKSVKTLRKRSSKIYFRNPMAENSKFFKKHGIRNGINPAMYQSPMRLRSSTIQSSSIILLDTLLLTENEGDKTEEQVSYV

`CSc1nn2c(C)cc(C)nc2c1S(=O)(=O)c1ccccc1` [AVN-211, 3-Benzenesulfonyl-5,7-dimethyl-2-methylsulfanyl-pyrazolo[1,5-a]pyrimidine]: in experiment [1], the “treatment response in Alzheimer's disease” value is on record as “enhanced treatment response”.

As for `O=S(=O)(c1ccccc1)c1cnc2c(N3CCNCC3)cccc2c1` [RVT-101, 3-phenylsulfonyl-8-piperazin-1-yl-quinoline], in experiment [1], the “treatment response in Alzheimer's disease” value is on record as “enhanced treatment response”.

Turning to `NCCCS(=O)(=O)O` [tramiprosate], the “primary endpoint of phase III program” value in experiment [2] (all patients) is “not to meet its primary endpoint”. In addition, the prespecified subgroup analysis entry in experiment [2] (apolipoprotein E4 carriers) is on record as “potential efficacy”.

On to `Fc1ccc2c(CCNCc3cccc(OCC(F)(F)C(F)F)c3)c[nH]c2c1` [idalopirdine, N-(2-(6-fluoro-1H-indol-3-yl)-ethyl)-3-(2,2,3,3-tetrafluoropropoxy)-benzylamine], for which the “Change in NPI at week 24, effect of 60 mg IDL” value (“Change in NPI” for short) is given as 0.96 in experiment [3] (setting [21]); −0.43 in experiment [3] (setting [22]); −4.52 in experiment [3] (setting [23]); −5.48 in experiment [3] (setting [24]); −3.44 in experiment [3] (setting [25]); 0.35 in experiment [6] (setting [21]). Moreover, the “Change in NPI” value in experiment [6] (setting [22]) is recorded as −0.04; in experiment [6] (setting [23]) it was −3.06; in experiment [6] (setting [24]), −3.41; in experiment [6] (setting [25]), −1.90; in experiment [17] (setting [21]) it was −0.09; in [17] (setting [22]) it was 0.34. The “Change in NPI” value in [17] (setting [23]) is reported as −2.06; in [17] (setting [24]), −1.97; in experiment [17] (setting [25]), −0.77. Besides, the “Change in ADCS-ADL at week 24, effect of 60 mg IDL” value (from here on “Change in ADCS-ADL”) in experiment [4] (setting [26]) is −0.21; in experiment [4] (setting [27]) it was 0.77; in experiment [4] (setting [28]) it was 1.88; in [4] (setting [24]), 2.09; in experiment [4] (setting [25]), 1.53; in experiment [15] (setting [26]), 0.50. Further, the “Change in ADCS-ADL” value in experiment [15] (setting [27]) is listed as 0.83; in experiment [15] (setting [28]) it was 1.86; in [15] (setting [24]), 1.37; in experiment [15] (setting [25]) it was 0.85; in experiment [19] (setting [26]), −1.29; in [19] (setting [27]), 0.75. For the same molecule, the “Change in ADCS-ADL” value in [19] (setting [28]) was found to be 2.06; in experiment [19] (setting [24]), 3.35; in experiment [19] (setting [25]) it was 2.69. Moreover, the “Change in ADAS-cog at week 24, effect of 60 mg IDL” value (shortened to “Change in ADAS-cog”) is recorded as 1.14 in experiment [5] (setting [21]); −0.67 in experiment [5] (setting [22]); −1.87 in [5] (setting [23]); −3.02 in experiment [5] (setting [24]); −2.42 in experiment [5] (setting [25]); −0.75 in [7] (setting [21]). The “Change in ADAS-cog” value in [7] (setting [22]) is given as −0.18; in [7] (setting [23]), −2.23; in experiment [7] (setting [24]), −1.48; in [7] (setting [25]), −0.46; in experiment [13] (setting [21]) it was 0.02; in [13] (setting [22]), −0.41. Further, the “Change in ADAS-cog” value in experiment [13] (setting [23]) is on record as −2.11; in [13] (setting [24]) it was −2.13; in experiment [13] (setting [25]), −1.28. Moreover, the “Change in MMSE at week 24, effect of 60 mg IDL” value (“Change in MMSE” below) in experiment [8] (setting [26]) was 0.16; in experiment [8] (setting [27]) it was 0.42; in [8] (setting [28]), 0.96; in [8] (setting [24]) it was 0.80; in [8] (setting [25]) it was 0.53; in experiment [14] (setting [26]), −0.20. Besides, the “Change in MMSE” value in [14] (setting [27]) was 0.53; in [14] (setting [28]), 1.00; in [14] (setting [24]) it was 1.20; in [14] (setting [25]), 0.96; in experiment [16] (setting [26]) it was −0.68; in [16] (setting [27]), 0.64. The “Change in MMSE” value in [16] (setting [28]) is on record as 1.11; in experiment [16] (setting [24]), 1.79; in experiment [16] (setting [25]), 1.56. For the same molecule, the “cognitive performance relative to donepezil monotherapy” value is “significant improvement” in experiment [9]; “a significant improvement” in experiment [12] (adjunctive to donepezil, APOE4 homozygote and APOE4 heterozygote patients with mild-moderate AD (MMSE 12-22)); “did not replicate the phase II efficacy results; also recorded: no significant improvement” in [12] (phase III, 10, 30, and 60 mg QD adjunctive to AChEI, all patients with mild-moderate AD (MMSE 12-22)). Also, the pKi (as a rule, the Ki on a negative log10 scale, so that one unit is a factor of ten) in [10] is less than 5.39; in [11] it was less than 5.00; in experiment [18], less than 5.34; in experiment [20], less than 5.00.
